From PMC8226262, “Licarin-B Exhibits Activity Against the Toxoplasma gondii RH Strain by Damaging Mitochondria and Activating Autophagy” (Frontiers in Cell and Developmental Biology, 2021)
Read-outs that look alike come from different tables or passages of the source.

How the values were obtained:
[1] = test system: T. gondii tachyzoites (strain RH) in HFFs; experiment: In vitro screening of anti-T. gondii activity (Giemsa staining, qPCR); format: cell-based, Toxoplasma gondii; settings: 24 h; for inhibition at 20 µg/mL: 20 μg/mL
Method: Human foreskin fibroblasts were seeded in 6-well plates and infected with 3 × 10^4 fresh T. gondii tachyzoites. After 8 h, the natural compounds in DMEM supplemented with 1% FBS were added. Sulfadiazine and pyrimethamine were included as positive drug controls. After incubation for 24 h, the cells were washed twice with PBS, stained with Giemsa, and observed by light microscopy. In addition, total DNA was isolated from the cells using DNAiso Reagent (Takara), and a 529-bp repeat element was amplified by quantitative polymerase chain reaction (qPCR) with the following primers: Tox-F (5′-AGGAGAGATATCAGGACTGTAG-3′), Tox-R (5′-GCGTCGTCTCGTCTAGATCG-3′), and the Taqman probe Tox-TP (6-Fam CCGGCTTGGCTGCTTTTCCT BHQ1), as described in a previous study ([Zhang J.L. et al., 2019]). The inhibition rates against T. gondii proliferation for the natural compounds at concentrations with no HFF toxicity were calculated, and the inhibition rate in each treatment group was presented as the % of the control group. The experiment was repeated three times.

HFF cells = experiment: Cytotoxicity assay (CCK-8); format: cell-based, Human
Method: In brief, HFFs (1 × 10^4 cells/well) were seeded in 96-well plates in a monolayer and incubated with different concentrations of the compounds in DMEM with 1% FBS; DMEM without compound was used as a control. After 24 h, CCK-8 solution (Biomake, United States) was added, and absorbance was measured at 450 nm using a Multiskan GO instrument (Thermo Fisher Scientific, MA, United States). The cell viability values are expressed as percentages of the control value (considered as 100% survival). […] Triplicate independent experiments were performed.

[2] = test system: T. gondii invasion of HFFs; experiment: Anti-invasion assessment in vitro (qPCR); format: cell-based, Toxoplasma gondii; settings: Toxoplasma gondii, 0.4 μg/mL, 2 h of infection, read-out: Anti-invasion inhibition rate
Method: Human foreskin fibroblasts were seeded in 6-well plates and incubated with different concentrations of licarin-B (4.5, 9, 13.5, 18, or 22.5 μg/mL), sulfadiazine (0.4 μg/mL, as a positive control) or without drugs in DMEM supplemented with 1% FBS and then infected with 3 × 10^6 fresh parasites per well. The anti-invasion capability of licarin-B was determined by qPCR after 2 h of infection, as described in a previous study ([Zhang J.L. et al., 2019]). Triplicate independent experiments were performed.

[3] = test system: T. gondii tachyzoite intracellular proliferation in HFFs; experiment: Anti-proliferation activity of licarin-B (qPCR); format: cell-based, Toxoplasma gondii; settings: Toxoplasma gondii, 0.4 μg/mL, 24 h
Method: DMEM without drugs was used as a parasite control. […] After 24 h, the cells were washed twice with PBS, and total genomic DNA from the cells was obtained as described in a previous study ([Zhang J.L. et al., 2019]). […] The results represent the means ± standard deviations (SD) from at least three independent experiments. The EC50 of licarin-B for tachyzoite growth inhibition was plotted as a function of the compound concentration via non-linear curve analysis using SPSS 19.0 software (SPSS Inc., Chicago, IL, United States). The results of the anti-invasion and anti-proliferation tests, the in vivo assays of the survival rate and parasite burden and data comparisons between the parasite control and treatment groups were statistically analyzed by one-way analysis of variance (ANOVA) using SPSS software.

[4] = Toxoplasma gondii, read-out: Mean inhibition rate (% of control)
[5] = Toxoplasma gondii, 4 μg/mL, T. gondii proliferation in HFFs, read-out: Mean inhibition rate (% of control)
[6] = Toxoplasma gondii, T. gondii proliferation in HFFs, read-out: Mean inhibition rate (% of control)
[7] = 80 μg/mL, T. gondii proliferation in HFFs

CC1(C)CC[C@]2(C(=O)O)CC[C@]3(C)C(=CC[C@@H]4[C@@]5(C)C[C@@H](O)[C@H](O)C(C)(C)[C@@H]5CC[C@]43C)[C@@H]2C1 [Maslinic acid, maslinic acid]
inhibition at 4 µg/mL [1, 4]: 65.4 ± 4.53% | Natural compound concentration range with no toxicity to HFF cells (HFF cells; CCK-8, 24 h, DMEM with 1% FBS): 0.01 to 4 µg/mL

O=c1c(-c2ccc(O)cc2)coc2cc(O)cc(O)c12 [Genistein, genistein]
inhibition at 40 µg/mL [1, 4]: 22.3 ± 5.91% | Natural compound concentration range with no toxicity to HFF cells (HFF cells; CCK-8, 24 h, DMEM with 1% FBS): 0.01 to 40 µg/mL

Cc1ccc(C(C)C)c(O)c1 [Thymol, thymol]
inhibition at 16 µg/mL ([1]; Toxoplasma gondii, 16 μg/mL, T. gondii proliferation in HFFs, read-out: Mean inhibition rate (% of control)): 25.7 ± 2.31% | Natural compound concentration range with no toxicity to HFF cells (HFF cells; human, 24 h): 0.01 to 16 µg/mL

Nc1ccc(S(=O)(=O)Nc2ncccn2)cc1 [Sulfadiazine, reference compound]
inhibition at 0.4 µg/mL [2]: 56.5% | inhibition at 0.4 µg/mL [3]: 40.8%

O=C(/C=C/c1ccc(O)cc1)c1ccc(O)cc1O [Isoliquiritigenin, isoliquiritigenin]
inhibition at 4 µg/mL [1, 5]: 42.8 ± 7.92% | Natural compound concentration range with no toxicity to HFF cells (HFF cells; human, 24 h): 0.01 to 4 µg/mL

COc1cc(O)ccc1/C=C/C(=O)c1ccc(O)cc1 [Echinatin, echinatin]
inhibition at 4 µg/mL [1, 5]: 63.1 ± 10.7% | Natural compound concentration range with no toxicity to HFF cells (HFF cells; CCK-8, 24 h, DMEM with 1% FBS): 0.01 to 4 µg/mL

C=CCc1cc(OC)c2c(c1)OCO2 [Myristicin, myristicin]
inhibition at 40 µg/mL [1, 4]: 22.3 ± 3.46% | Natural compound concentration range with no toxicity to HFF cells (HFF cells; CCK-8, 24 h, DMEM with 1% FBS): 0.01 to 40 µg/mL

CCCCCCCCCCCCCC(=O)O [Myristic acid, myristic acid]
inhibition at 20 µg/mL [1, 6]: 26.3 ± 1.32% | Natural compound concentration range with no toxicity to HFF cells (HFF cells; CCK-8, 24 h, DMEM with 1% FBS): 0.01 to 20 µg/mL

CC1(C)O[C@H]2CC(=O)OC[C@]23[C@H]2CC[C@@]4(C)[C@H](c5ccoc5)OC(=O)[C@H]5O[C@]54[C@]2(C)C(=O)C[C@@H]13 [Limonin, limonin]
inhibition at 80 µg/mL ([1]; Toxoplasma gondii, 80 μg/mL, T. gondii proliferation in HFFs, read-out: Mean inhibition rate (% of control)): 72.2 ± 9.78% | Natural compound concentration range with no toxicity to HFF cells (HFF cells; human, 24 h): 0.01 to 80 µg/mL

O=C(O)[C@H](O)c1ccccc1 [D-mandelic acid]
Mean inhibition rate (% of control) [1, 7]: 9.30 ± 3.76% | Natural compound concentration range with no toxicity to HFF cells (HFF cells; CCK-8, 24 h, DMEM with 1% FBS): 0.01 to 80 µg/mL

licorice glycosides
Mean inhibition rate (% of control) [1, 7]: 35.93 ± 4.78%

COc1c(/C=C/C(=O)c2ccc(O)cc2)ccc(O)c1CC=C(C)C [Licochalcone C, licochalcone C]
Mean inhibition rate (% of control) ([1]; 4 μg/mL, T. gondii proliferation in HFFs): 54.91 ± 4.85%

COc1c(/C=C/C(=O)c2ccc(O)cc2)ccc(O)c1O [Licochalcone B]
Mean inhibition rate (% of control) ([1]; 16 μg/mL, T. gondii proliferation in HFFs): 51.67 ± 6.71%

O=C(/C=C/c1ccc(O)c(O)c1)O[C@@H]1C[C@](O)(C(=O)O)C[C@@H](O)[C@H]1O [Chlorogenic acid, chlorogenic acid]
inhibition at 400 µg/mL ([1]; Toxoplasma gondii, 400 μg/mL, T. gondii proliferation in HFFs, read-out: Mean inhibition rate (% of control)): 34.6 ± 2.77% | Natural compound concentration range with no toxicity to HFF cells (HFF cells; human, 24 h): 0.01 to 400 µg/mL

COc1cc2c(=O)c(-c3ccc(O)cc3)coc2cc1O [Glycitein, glycitein]
inhibition at 40 µg/mL ([1]; Toxoplasma gondii, 40 μg/mL, T. gondii proliferation in HFFs, read-out: Mean inhibition rate (% of control)): 8.11 ± 2.19% | Natural compound concentration range with no toxicity to HFF cells (HFF cells; CCK-8, 24 h, DMEM with 1% FBS): 0.01 to 40 µg/mL

CCCCCCCCCCCCCC(=O)OC [Methyl myristate, methyl myristate]
inhibition at 160 µg/mL ([1]; Toxoplasma gondii, 160 μg/mL, T. gondii proliferation in HFFs, read-out: Mean inhibition rate (% of control)): 7.65 ± 2.64% | Natural compound concentration range with no toxicity to HFF cells (HFF cells; human, 24 h): 0.01 to 160 µg/mL

C/C=C/c1cc(OC)c2c(c1)C(C)C(c1ccc(O)c(OC)c1)O2 (stereo not drawn) [Dehydrodiisoeugenol, dehydrodiisoeugenol]
Mean inhibition rate (% of control) [1, 7]: 8.14 ± 2.15%

CC1=CC(=O)C(C(C)C)CC1 (stereo not drawn) [Piperitone, piperitone]
inhibition at 20 µg/mL [1, 6]: 31.1 ± 1.97% | Natural compound concentration range with no toxicity to HFF cells (HFF cells; human, 24 h): 0.01 to 20 µg/mL

O=C(O)[C@@H](O)c1ccccc1 [L-mandelic acid]
Mean inhibition rate (% of control) [1, 7]: 11.87 ± 2.84% | Natural compound concentration range with no toxicity to HFF cells (HFF cells; CCK-8, 24 h, DMEM with 1% FBS): 0.01 to 80 µg/mL

O=c1c(-c2ccc(O)cc2)coc2cc(O[C@@H]3O[C@H](CO)[C@@H](O)[C@H](O)[C@H]3O)cc(O)c12 [Genistin, genistin]
inhibition at 32 µg/mL ([1]; Toxoplasma gondii, 32 μg/mL, T. gondii proliferation in HFFs, read-out: Mean inhibition rate (% of control)): 26.3 ± 3.54% | Natural compound concentration range with no toxicity to HFF cells (HFF cells; CCK-8, 24 h, DMEM with 1% FBS): 0.01 to 32 µg/mL
